From US5500443A, “New benzodioxane compounds” (Adir et Compagnie, priority 1994, dated 1996)
Where a name gives a salt, the structure may show the parent alone. Read-outs that look alike come from different tables or passages of the source.

What was measured:
D1 = molecular target: T1, D1 (Rattus norvegicus, UniProt P18901); assay: Receptor profile, binding studies (D1); details: read-out: Receptor Profile (pKi) D1 (converted)
T1 construct: from tissue

D2 = D2 (Rattus norvegicus, UniProt P61169); assay: biochemical; details: binding; read-out: Receptor Profile (pKi) D2 (converted)
Chain of D2 (P61169 whole entry): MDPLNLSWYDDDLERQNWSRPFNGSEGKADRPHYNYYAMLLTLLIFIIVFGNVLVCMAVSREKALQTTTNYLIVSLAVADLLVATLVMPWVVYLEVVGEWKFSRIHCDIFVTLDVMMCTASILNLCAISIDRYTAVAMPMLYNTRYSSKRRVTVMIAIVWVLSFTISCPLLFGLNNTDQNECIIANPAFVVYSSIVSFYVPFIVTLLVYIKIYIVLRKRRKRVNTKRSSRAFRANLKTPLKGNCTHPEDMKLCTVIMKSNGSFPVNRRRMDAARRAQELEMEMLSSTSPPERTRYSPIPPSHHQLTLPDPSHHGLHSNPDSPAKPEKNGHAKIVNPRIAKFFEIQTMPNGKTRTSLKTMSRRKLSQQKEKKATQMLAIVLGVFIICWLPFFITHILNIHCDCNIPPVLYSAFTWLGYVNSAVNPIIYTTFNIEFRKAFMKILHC

5-HT1A = molecular target: T2, 5-HT1A (Rattus norvegicus, UniProt P19327); assay: biochemical; details: binding; read-out: Receptor Profile (pKi) 5-HT1A (converted)
T2 sequence (P19327 1-422): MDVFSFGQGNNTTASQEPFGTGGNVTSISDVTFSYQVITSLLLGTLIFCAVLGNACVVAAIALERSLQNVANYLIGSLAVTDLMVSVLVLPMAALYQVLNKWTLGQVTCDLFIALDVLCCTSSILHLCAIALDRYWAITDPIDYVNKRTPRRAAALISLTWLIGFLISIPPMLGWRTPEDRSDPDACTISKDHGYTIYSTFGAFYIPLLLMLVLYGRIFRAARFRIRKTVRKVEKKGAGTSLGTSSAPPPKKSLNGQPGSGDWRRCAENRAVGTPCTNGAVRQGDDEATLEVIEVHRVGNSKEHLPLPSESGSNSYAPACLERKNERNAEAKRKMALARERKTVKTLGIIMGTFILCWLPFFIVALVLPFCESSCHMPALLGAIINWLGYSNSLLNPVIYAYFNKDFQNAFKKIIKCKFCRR

5-HT2A = molecular target: T3, 5-HT2A (Rattus norvegicus, UniProt P14842); assay: Receptor profile, binding studies (5-HT2A); details: Receptor Profile (pKi) 5-HT2A
T3 construct: from tissue
T3 sequence (P14842 whole entry): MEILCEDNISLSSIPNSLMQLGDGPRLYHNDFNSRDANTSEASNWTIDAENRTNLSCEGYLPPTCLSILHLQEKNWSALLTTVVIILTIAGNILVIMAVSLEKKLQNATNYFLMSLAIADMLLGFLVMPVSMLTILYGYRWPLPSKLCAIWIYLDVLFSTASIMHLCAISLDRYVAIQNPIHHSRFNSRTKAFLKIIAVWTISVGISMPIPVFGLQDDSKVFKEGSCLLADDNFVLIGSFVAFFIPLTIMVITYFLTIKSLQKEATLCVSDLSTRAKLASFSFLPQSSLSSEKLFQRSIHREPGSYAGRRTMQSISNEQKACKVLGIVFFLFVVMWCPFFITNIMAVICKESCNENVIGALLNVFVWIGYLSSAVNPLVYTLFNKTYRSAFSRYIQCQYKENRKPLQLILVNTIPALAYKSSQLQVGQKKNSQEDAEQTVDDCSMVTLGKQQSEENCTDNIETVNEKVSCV

5-HT2C = molecular target: T4, 5-HT2C (Sus scrofa, UniProt K7GSR7); assay: Receptor profile, binding studies (5-HT2C); details: Receptor Profile (pKi) 5-HT2C
T4 construct: from tissue
T4 sequence (K7GSR7 1-457): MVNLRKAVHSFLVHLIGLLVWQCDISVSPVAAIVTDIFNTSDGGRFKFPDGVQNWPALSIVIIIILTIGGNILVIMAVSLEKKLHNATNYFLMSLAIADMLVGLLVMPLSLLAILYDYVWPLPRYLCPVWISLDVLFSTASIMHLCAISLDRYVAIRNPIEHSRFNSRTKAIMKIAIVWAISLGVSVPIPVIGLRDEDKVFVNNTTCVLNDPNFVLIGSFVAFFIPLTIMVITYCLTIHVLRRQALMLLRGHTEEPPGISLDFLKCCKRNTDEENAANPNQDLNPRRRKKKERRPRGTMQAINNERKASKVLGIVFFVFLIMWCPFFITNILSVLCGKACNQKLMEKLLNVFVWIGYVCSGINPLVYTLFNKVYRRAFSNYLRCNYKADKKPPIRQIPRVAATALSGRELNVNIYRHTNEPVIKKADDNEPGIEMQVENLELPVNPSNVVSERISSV

α1 = assay: Receptor profile, binding studies (α1)
[1] = test system: mesolimbic dopaminergic pathways; assay: Verticalization test using apomorphine in mice; assay type: in vivo, male CF (Charles River) mice; details: for ED50: Mus musculus, sc, read-out: Verticalization (Apomorphine) DI50
Procedure: (§1) An activity in these tests appears to reflect blocking of the mesolimbic dopaminergic pathways, which are believed to be hyperactive in schizophrenics, as described by P. C.
The experiment was performed on male CF (Charles River) mice of average weight 25 g. thirty minutes before the start of the test, each mouse was placed in a cylindrical cage (O12 cm 14 cm), with vertical metal bars and a smooth plastic lid, after having received a subcutaneous injection of solvent or of product. […] At T10 (10 minutes) and at T20 (20 minutes), a score was attributed to each animal after observation for approximately one minute:
score 0 (4 feet on the floor);
score 1 (animal raised on hind legs, forefeet on the vertical bars);
score 2 (animal gripping on to the bars with all 4 feet).
The total score of the 2 measurements then represents the verticalization value of the animal, which is used for the statistical analysis.

[2] = test system: mesolimbic dopaminergic pathways; assay: Test of the motor activity induced by amphetamine; assay type: in vivo, male Wistar rats; details: for ED50: Rattus norvegicus, sc, read-out: Locomotion (Amphetamine) DI50
Procedure: motor activity inhibition induced by amphetamine (which increases the release of catecholamines) according to the procedure described by A. A. Mengens, cited above.
as §1
Male Wistar rats (200-220 g) were placed in transparent polycarbonate individual cages the night before the test. The locomotor activity was recorded using photoelectric cells (Systeme Lablinc, Coulbourn) connected via an interface to a microcomputer. There are two transverse banks of photoelectric cells per cage. The test takes place under artificial light, starting from 1.00 p.m., during daylight hours. The product or solvent was administered to the animal subcutaneously, 30 minutes before the start of the test.

[3] = Induction of catalepsy in rats; parameters: species or system male Wistar rats; details: rat, in vivo, sc
Text: In order to determine the potential of the compounds of the invention to generate a syndrome of extrapyramidal type, the capacity to induce a catalepsy in rats was examined. This phenomenon is due to an antagonism of the nigrostriatal dopaminergic transmission.
Male Wistar rats (220-240 g) were placed in individual cages and food was witheld the night before the test. The test used to evaluate the cataleptogenic properties of a product consists in placing each of the animal's hind feet on the forefoot located on the same side and in measuring the time in seconds for which the animal kept this "crossed feet" position, up to 30 seconds, as described by P. C. […] Each animal underwent three tests, at intervals of one minute; the average value of the three tests then represents the catalepsy time of the animal, which is used for the statistical analysis. The product to be tested was administered to the animal subcutaneously, 30 minutes before the test.
The effective cataleptogenic dose ED5.sbsb.0 is that which induces catalepsy for an average duration of 15 seconds, that is to say for 50% of the maximum duration of the test (30 seconds).

[4] = test system: adrenergic (α1) receptors; details: cited from earlier work
schizophrenia = details: cited from earlier work
5-HT1A receptors = details: unlike haloperidol; cited from earlier work
[5] = mice, s.c. 30 min before, apomorphine 0.75 mg/kg s.c., Inhibitory Dose50, 95% confidence limits
[6] = rats, s.c. 30 min before, D-amphetamine 2.5 mg/kg i.p., 1 hour, Inhibitory Dose50, 95% confidence limits

T1 sequence (P18901 whole entry): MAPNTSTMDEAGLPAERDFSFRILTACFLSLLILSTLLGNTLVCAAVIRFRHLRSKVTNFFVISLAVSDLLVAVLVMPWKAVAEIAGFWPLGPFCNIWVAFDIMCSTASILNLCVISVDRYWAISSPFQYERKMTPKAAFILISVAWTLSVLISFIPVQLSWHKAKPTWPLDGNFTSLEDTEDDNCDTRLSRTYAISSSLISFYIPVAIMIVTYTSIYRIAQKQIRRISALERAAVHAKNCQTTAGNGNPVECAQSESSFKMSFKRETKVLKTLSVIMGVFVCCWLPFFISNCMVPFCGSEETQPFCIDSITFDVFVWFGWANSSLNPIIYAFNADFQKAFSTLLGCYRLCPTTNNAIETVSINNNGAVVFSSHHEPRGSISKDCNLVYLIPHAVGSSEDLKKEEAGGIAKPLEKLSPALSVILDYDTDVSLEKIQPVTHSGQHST

Compound `O=C(CC1CCN(CCOc2cccc3c2OCCO3)C1)c1ccc(F)cc1` (single isomer, unassigned) [Example 5, 5-{2-[3-(4-Fluorobenzoylmethyl)pyrrolidin-1-yl]ethoxy}-1,4-benzodioxane hydrochloride, (+) isomer] has a Ki (D1) of 275 nM, a Ki (D2) of 46.8 nM and a Ki (5-HT1A) of 4.79 nM. For the same compound, the Ki (5-HT2A) was 3.31 nM, the Ki (5-HT2C) was 9.33 nM and the “Receptor Profile (pKi) α1” value (α1; listed as ex. 5) was 8.19. The ED50 [1, 5] was 0.26 mg/kg, the ED50 [2, 6] was 2.8 mg/kg and the ED50 at 0.5 h [3] was > 40 mg/kg.

With `O=C(CC1CCN(CCOc2cccc3c2OCCO3)C1)c1ccc(F)cc1` (single isomer, unassigned) [Example 6, 5-{2-[3-(4-Fluorobenzoylmethyl)pyrrolidin-1-yl]ethoxy}-1,4-benzodioxane hydrochloride, (-) isomer] the Ki (D1) was 204 nM, the Ki (D2) was 53.7 nM and the Ki (5-HT1A) was 3.63 nM. For the same compound, the Ki (5-HT2A) was 2.4 nM, the Ki (5-HT2C) was 6.61 nM and the “Receptor Profile (pKi) α1” value (α1; listed as ex. 6) was 8.93. For the same compound, the “Verticalization (Apomorphine) DI50” value ([1]; mice, s.c. 30 min before, apomorphine 0.75 mg/kg s.c., Inhibitory Dose50, 95% confidence limits, listed as Ex. 6) was 0.25 mg/kg and the “Locomotion (Amphetamine) DI50” value ([2]; rats, s.c. 30 min before, D-amphetamine 2.5 mg/kg i.p., 1 hour, Inhibitory Dose50, 95% confidence limits, listed as Ex. 6) was 1.94 mg/kg.

With `CN1CCN(C2=Nc3cc(Cl)ccc3Nc3ccccc32)CC1` [Clozapine, clozapine] the ED50 [1, 5] was 2.22 mg/kg, the ED50 [2, 6] was 12.8 mg/kg and the ED50 at 0.5 h ([3]; rats, s.c. 30 min before, dose inducing catalepsy for an average of 15 seconds (50% of maximum), read-out: Induction of the catalepsy DE50) was > 40 mg/kg. For the same compound, the “affinity for the adrenergic (α1) receptors” value [4] was “relatively high affinity”, the “toxicity in the general treatment of schizophrenic states” value (schizophrenia; human, in vivo) was “on account of its toxicity, clozapine cannot be envisaged in the general treatment of schizophrenic states” and the extrapyramidal syndrome (schizophrenia; schizophrenia) was “appears not to bring about an extrapyramidal syndrom”. For the same compound, the “affinity for the 5-HT1A receptors” value (5-HT1A receptors) was “a certain affinity for the 5-HT1A receptors”.

`O=C(CC1CCN(CCOc2cccc3c2OCCO3)C1)c1ccc(F)cc1` (stereo not shown) [Example 2, 5-{2-[3-(4-Fluorobenzoylmethyl)pyrrolidin-1-yl}-1,4-benzodioxane hydrochloride] gave a Ki (D1) of 251 nM, a Ki (D2) of 43.7 nM and a Ki (5-HT1A) of 4.9 nM. The Ki (5-HT2A) was 3.98 nM, the Ki (5-HT2C) was 7.94 nM and the “Receptor Profile (pKi) α1” value (α1) was 8.61. For the same compound, the ED50 [1, 5] was 0.28 mg/kg, the ED50 [2, 6] was 2.17 mg/kg and the ED50 at 0.5 h [3] was > 40 mg/kg.

`Cl.Fc1ccc2c(CC3CCN(CCOc4cccc5c4OCCO5)C3)n[nH]c2c1` (stereo not shown) [Example 7, 5-{2-[3-[(6-Fluoro-1H-indazol-3-yl)methyl]pyrrolidin-1-yl]ethoxy}-1,4-benzodioxane hydrochloride] gave a Ki (D2) of 53.7 nM, a Ki (5-HT1A) of 1.7 nM and a Ki (5-HT2A) of 21.9 nM. For the same compound, the Ki (5-HT2C) was 93.3 nM and the ED50 [1, 5] was 0.41 mg/kg.

Work on `Cl.Fc1ccc2c(CC3CCN(CCOc4cccc5c4OCCO5)C3)noc2c1` (stereo not shown) [Example 8, 5-{2-[3-[(6-Fluoro-1,2-benzisoxazol-3-yl)methyl]pyrrolidin-1-yl]ethoxy}-1,4-benzodioxane hydrochloride] yielded a Ki (D2) of 257 nM, a Ki (5-HT1A) of 3.89 nM and a Ki (5-HT2A) of 13.2 nM. For the same compound, the Ki (5-HT2C) was 95.5 nM and the ED50 [1, 5] was ~0.63 mg/kg.

With `O=C(CCCN1CCC(O)(c2ccc(Cl)cc2)CC1)c1ccc(F)cc1` [Haloperidol, haloperidol, reference compound] the ED50 [1] was 0.013 mg/kg, the ED50 [2] was 0.043 mg/kg and the ED50 at 0.5 h [3] was 0.156 mg/kg. For the same compound, the “effectiveness for the productive symptoms (such as fabulation and hallucinations)” value (schizophrenia; schizophrenia) was “quite good care for the productive symptoms”, the “effectiveness with regard to deficiency symptoms (such as social withdrawal)” value (schizophrenia; schizophrenia) was “very poor” and the extrapyramidal syndrome (schizophrenia; schizophrenia) was “induce an extrapyramidal syndrome of Parkinson type”.
